Tests used:
Experiment in all cases: relative viability (nuclei count vs DMSO), 5 days (fraction); higher = more cells survive
[1] = test system: HCC-827
In short: (§1)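 Lung cancer cell lines, seeded in 1536-well plates, were treated the following day by pin tool with a single drug or with five library-drug doses (not always all listed) in √10 steps on top of a fixed anchor-drug dose. Cells were fixed and nuclei stained in one step after 5 days, and nuclei were counted. Relative viability is the nuclei count for treated wells divided by that for vehicle wells, reported as medians of duplicate plates.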

[2] = test system: HCC-78
In short: as §1

[3] = test system: HCC-366
In short: as §1

[4] = test system: SK-MES-1
In short: as §1

[5] = test system: NCI-H1437
In short: as §1

[6] = test system: SK-LU-1
In short: as §1

[7] = test system: NCI-H727
In short: as §1

[8] = test system: COR-L 105
In short: as §1

[9] = test system: UMC-11
In short: as §1

[10] = test system: NCI-H1792
In short: as §1

[11] = test system: NCI-H1944
In short: as §1

[12] = test system: NCI-H2085
In short: as §1

[13] = test system: EPLC-272H
In short: as §1

[14] = test system: NCI-H2023
In short: as §1

[15] = test system: NCI-H358
In short: as §1

[16] = test system: HCC-15
In short: as §1

[17] = test system: COR-L23
In short: as §1

[18] = test system: NCI-H1395
In short: as §1

[19] = test system: NCI-H661
In short: as §1

[20] = test system: HCC-44
In short: as §1

[21] = test system: LCLC-103H
In short: as §1

[22] = test system: NCI-H2405
In short: as §1

[23] = test system: HARA
In short: as §1

[24] = test system: NCI-H1975
In short: as §1

CCCCCCCCCCCC1=C(O)C(=O)C=C(O)C1=O [Embelin] + Cc1nc(NC(=O)N2CCC[C@H]2C(N)=O)sc1-c1ccnc(C(C)(C)C(F)(F)F)c1 [Alpelisib] (partner 2 µM)
relative viability ([1]; first compound 0.08 µM): 1.03 | relative viability ([1]; first compound 0.8 µM): 0.929 | relative viability ([1]; first compound 2.53 µM): 1.07 | relative viability ([1]; first compound 8 µM): 0.961 | relative viability ([2]; first compound 0.08 µM): 0.329 | relative viability ([2]; first compound 0.8 µM): 0.392 | relative viability ([2]; first compound 2.53 µM): 0.388 | relative viability ([2]; first compound 8 µM): 0.307 | relative viability ([3]; first compound 0.08 µM): 0.411 | relative viability ([3]; first compound 0.8 µM): 0.418 | relative viability ([3]; first compound 2.53 µM): 0.412 | relative viability ([3]; first compound 8 µM): 0.427 | relative viability ([4]; first compound 0.08 µM): 0.902 | relative viability ([4]; first compound 0.8 µM): 1.15 | relative viability ([4]; first compound 2.53 µM): 0.96 | relative viability ([4]; first compound 8 µM): 0.876 | relative viability ([5]; first compound 0.08 µM): 0.916 | relative viability ([5]; first compound 0.8 µM): 1.05 | relative viability ([5]; first compound 2.53 µM): 1.32 | relative viability ([5]; first compound 8 µM): 0.697 | relative viability ([6]; first compound 0.08 µM): 1.29 | relative viability ([6]; first compound 0.8 µM): 1.31 | relative viability ([6]; first compound 2.53 µM): 1.37 | relative viability ([6]; first compound 8 µM): 0.904 | relative viability ([7]; first compound 0.08 µM): 0.629 | relative viability ([7]; first compound 0.8 µM): 0.57 | relative viability ([7]; first compound 2.53 µM): 0.578 | relative viability ([7]; first compound 8 µM): 0.511 | relative viability ([8]; first compound 0.08 µM): 0.951 | relative viability ([8]; first compound 0.8 µM): 1.15 | relative viability ([8]; first compound 2.53 µM): 0.968 | relative viability ([8]; first compound 8 µM): 1.31 | relative viability ([9]; first compound 0.08 µM): 0.969 | relative viability ([9]; first compound 0.8 µM): 1.07 | relative viability ([9]; first compound 2.53 µM): 1.24 | relative viability ([9]; first compound 8 µM): 1.2 | relative viability ([10]; first compound 0.08 µM): 0.718 | relative viability ([10]; first compound 0.8 µM): 0.764 | relative viability ([10]; first compound 2.53 µM): 0.785 | relative viability ([10]; first compound 8 µM): 0.588 | relative viability ([11]; first compound 0.08 µM): 0.818 | relative viability ([11]; first compound 0.8 µM): 0.925 | relative viability ([11]; first compound 2.53 µM): 0.875 | relative viability ([11]; first compound 8 µM): 0.828 | relative viability ([12]; first compound 0.08 µM): 0.944 | relative viability ([12]; first compound 0.8 µM): 0.999 | relative viability ([12]; first compound 2.53 µM): 1.11 | relative viability ([12]; first compound 8 µM): 0.999 | relative viability ([13]; first compound 0.08 µM): 0.963 | relative viability ([13]; first compound 0.8 µM): 1.21 | relative viability ([13]; first compound 2.53 µM): 0.908 | relative viability ([13]; first compound 8 µM): 0.933 | relative viability ([14]; first compound 0.08 µM): 0.708 | relative viability ([14]; first compound 0.8 µM): 0.532 | relative viability ([14]; first compound 2.53 µM): 0.651 | relative viability ([14]; first compound 8 µM): 0.639 | relative viability ([15]; first compound 0.08 µM): 0.852 | relative viability ([15]; first compound 0.8 µM): 0.958 | relative viability ([15]; first compound 2.53 µM): 1.09 | relative viability ([15]; first compound 8 µM): 0.918 | relative viability ([16]; first compound 0.08 µM): 0.882 | relative viability ([16]; first compound 0.8 µM): 0.864 | relative viability ([16]; first compound 2.53 µM): 0.957 | relative viability ([16]; first compound 8 µM): 0.995 | relative viability ([17]; first compound 0.08 µM): 0.872 | relative viability ([17]; first compound 0.8 µM): 1.11 | relative viability ([17]; first compound 2.53 µM): 0.874 | relative viability ([17]; first compound 8 µM): 0.777 | relative viability ([18]; first compound 0.08 µM): 1.06 | relative viability ([18]; first compound 0.8 µM): 1.24 | relative viability ([18]; first compound 2.53 µM): 0.982 | relative viability ([18]; first compound 8 µM): 1.1 | relative viability ([19]; first compound 0.08 µM): 0.612 | relative viability ([19]; first compound 0.8 µM): 0.97 | relative viability ([19]; first compound 2.53 µM): 0.92 | relative viability ([19]; first compound 8 µM): 0.756 | relative viability ([20]; first compound 0.08 µM): 0.781 | relative viability ([20]; first compound 0.8 µM): 0.767 | relative viability ([20]; first compound 2.53 µM): 0.895 | relative viability ([20]; first compound 8 µM): 1 | relative viability ([21]; first compound 0.08 µM): 1.07 | relative viability ([21]; first compound 0.8 µM): 1.02 | relative viability ([21]; first compound 2.53 µM): 1.02 | relative viability ([21]; first compound 8 µM): 0.866 | relative viability ([22]; first compound 0.08 µM): 0.853 | relative viability ([22]; first compound 0.8 µM): 1.11 | relative viability ([22]; first compound 2.53 µM): 0.774 | relative viability ([22]; first compound 8 µM): 0.793 | relative viability ([23]; first compound 0.08 µM): 0.848 | relative viability ([23]; first compound 0.8 µM): 0.887 | relative viability ([23]; first compound 2.53 µM): 0.989 | relative viability ([23]; first compound 8 µM): 0.702 | relative viability ([24]; first compound 0.08 µM): 0.663 | relative viability ([24]; first compound 0.8 µM): 0.674 | relative viability ([24]; first compound 2.53 µM): 0.696 | relative viability ([24]; first compound 8 µM): 0.674
